From US20240208992A1, “MACROCYCLES AS CFTR MODULATORS” (Idorsia Pharmaceuticals Ltd, priority 2021, published 2024)

Target: human F508del-CFTR (Homo sapiens, UniProt P13569, DEL508-508)
Experiment: F508del-CFTR cell surface expression (corrector activity), DiscoveRx ß-galactosidase complementation chemiluminescence assay in recombinant U2OS cell line;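 further: U2OS cells co-expressing ProLink-tagged F508del-CFTR and a membrane-anchored enzyme acceptor, where more surface CFTR restores β-galactosidase activity measured by chemiluminescence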
Conditions: for EC50: EC50, F508del-CFTR cell surface expression; for Emax: U2OS
[1] = U2OS cell line, 16h compound incubation, geomean values
[2] = in relation to the Emax of the corrector lumacaftor (=100%), U2OS cell line, 16h compound incubation, arithmetic mean values
[3] = U2OS cells, 16h compound incubation, geomean values
[4] = in relation to Emax of corrector lumacaftor (=100%), arithmetic mean values
[5] = U2OS cells, 16h compound incubation, geomean of several measurements
[6] = in relation to the Emax of the corrector lumacaftor (=100%), U2OS cells, 16h compound incubation, arithmetic mean

human F508del-CFTR, sequence (P13569 with tags, fused parts or gaps DEL508-508): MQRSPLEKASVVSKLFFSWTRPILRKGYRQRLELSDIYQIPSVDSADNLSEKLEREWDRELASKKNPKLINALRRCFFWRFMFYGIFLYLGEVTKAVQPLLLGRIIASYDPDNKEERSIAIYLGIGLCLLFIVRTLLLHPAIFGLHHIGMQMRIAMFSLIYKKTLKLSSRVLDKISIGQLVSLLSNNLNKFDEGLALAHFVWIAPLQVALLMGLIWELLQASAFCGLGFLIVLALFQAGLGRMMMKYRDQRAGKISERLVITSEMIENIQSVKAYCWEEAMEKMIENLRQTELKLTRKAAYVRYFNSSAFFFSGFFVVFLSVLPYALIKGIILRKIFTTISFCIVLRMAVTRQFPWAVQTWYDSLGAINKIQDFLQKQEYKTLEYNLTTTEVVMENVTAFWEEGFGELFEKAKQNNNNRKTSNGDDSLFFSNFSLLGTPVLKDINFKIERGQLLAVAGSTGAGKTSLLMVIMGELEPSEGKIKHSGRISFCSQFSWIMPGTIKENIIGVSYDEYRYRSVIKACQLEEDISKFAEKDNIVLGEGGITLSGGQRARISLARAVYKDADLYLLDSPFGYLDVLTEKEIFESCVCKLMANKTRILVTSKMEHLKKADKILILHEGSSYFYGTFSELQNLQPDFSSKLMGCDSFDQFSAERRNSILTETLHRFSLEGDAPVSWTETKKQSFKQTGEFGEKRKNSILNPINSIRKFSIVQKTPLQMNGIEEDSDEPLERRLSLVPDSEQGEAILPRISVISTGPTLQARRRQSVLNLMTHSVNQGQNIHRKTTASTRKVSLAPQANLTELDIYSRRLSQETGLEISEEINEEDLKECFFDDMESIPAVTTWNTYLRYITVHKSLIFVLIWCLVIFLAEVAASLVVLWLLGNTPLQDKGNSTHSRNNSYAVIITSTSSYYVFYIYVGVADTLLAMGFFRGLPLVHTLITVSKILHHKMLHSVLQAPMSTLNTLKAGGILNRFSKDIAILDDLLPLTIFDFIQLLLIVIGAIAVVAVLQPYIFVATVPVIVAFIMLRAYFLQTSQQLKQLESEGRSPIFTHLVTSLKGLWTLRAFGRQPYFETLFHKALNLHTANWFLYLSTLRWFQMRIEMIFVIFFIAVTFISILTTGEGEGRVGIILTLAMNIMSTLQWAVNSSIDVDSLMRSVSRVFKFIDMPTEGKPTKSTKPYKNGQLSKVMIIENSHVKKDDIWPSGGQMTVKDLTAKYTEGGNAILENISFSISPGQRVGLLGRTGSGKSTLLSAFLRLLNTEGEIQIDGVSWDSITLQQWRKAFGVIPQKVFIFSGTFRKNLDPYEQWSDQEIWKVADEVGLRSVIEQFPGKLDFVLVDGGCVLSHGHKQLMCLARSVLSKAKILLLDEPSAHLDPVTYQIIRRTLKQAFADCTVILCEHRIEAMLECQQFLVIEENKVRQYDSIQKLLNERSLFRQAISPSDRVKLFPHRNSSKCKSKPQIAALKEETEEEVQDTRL

| EC50 [3] | Emax [4] | SMILES | EC50 [1] | Emax [2] | other results |
| --- | --- | --- | --- | --- | --- |
|  |  | CCOc1cccc2c1C(=O)N[C@H](C(=O)NCCc1ccc3c(c1)OCCO3)CC(=O)N(C)[C@@H](CC(C)C)C(=O)C1CCC[C@@H](N1)C(=O)N[C@H](Cc1ccccc1)CO2 [Example 283, (7S,11S,20R,22aR)-20-benzyl-N-(2-(2,3-dihydrobenzo[b][1,4]dioxin-6-yl)ethyl)-14-ethoxy-7-isobutyl-8-methyl-6,9,13,22-tetraoxo-1,3,4,6,7,8,9,10,11,12,13,19,20,21,22,22a-hexadecahydro-2H-benzo[p]pyrido[2,1-f][1]oxa[4,7,10,14]tetraazacycloheptadecine-11-carboxamide] | 0.272 µM | 231% |  |
|  |  | COc1cccc(CCNC(=O)[C@@H]2CC(=O)N(C)[C@@H](CC(C)C)C(=O)N(C)[C@H](CC(C)(C)C)C(=O)N[C@H](Cc3ccccc3)COc3cc(C)nc(OC)c3C(=O)N2)c1 [Example 873, (3R,6R,9S,13S)-3-benzyl-9-isobutyl-16-methoxy-N-(3-methoxyphenethyl)-7,10,18-trimethyl-6-neopentyl-5,8,11,15-tetraoxo-2,3,4,5,6,7,8,9,10,11,12,13,14,15-tetradecahydropyrido[3,4-p][1]oxa[4,7,10,14]tetraazacycloheptadecine-13-carboxamide] |  |  | EC50 [5]: 0.041 µM; Emax [6]: 336% |
|  |  | CC(C)C[C@H]1C(=O)N(C)CC(=O)N[C@H](Cc2ccccc2)COc2cccc(F)c2C(=O)N[C@H](C(=O)NCCc2ccc3c(c2)OCO3)CC(=O)N1C [Example 278, (3R,9S,13S)-N-(2-(benzo[d][1,3]dioxol-5-yl)ethyl)-3-benzyl-16-fluoro-9-isobutyl-7,10-dimethyl-5,8,11,15-tetraoxo-2,3,4,5,6,7,8,9,10,11,12,13,14,15-tetradecahydrobenzo[p][1]oxa[4,7,10,14]tetraazacycloheptadecine-13-carboxamide] | 0.709 µM | 167% |  |
| 0.125 µM | 280% | CC(C)C[C@H]1C(=O)N2CCN(C3CC3)C[C@@H]2C(=O)N[C@H](Cc2ccccc2)COc2cnc3ccccc3c2C(=O)N[C@H](C(=O)NCCc2cccc(OC(F)F)c2)CC(=O)N1C [Example 398, (9S,13S,19aR,22R)-22-benzyl-18-cyclopropyl-N-(3-(difluoromethoxy)phenethyl)-13-isobutyl-12-methyl-7,11,14,20-tetraoxo-7,8,9,10,11,12,13,14,17,18,19,19a,20,21,22,23-hexadecahydro-16H-pyrazino[2′,11:6,7][1]oxa[4,7,10,14]tetraazacycloheptadecino[17,16-c]quinoline-9-carboxamide] |  |  |  |
|  |  | COc1cccc2c1C(=O)N[C@H](C(=O)NCCc1cnccn1)CC(=O)N(C)[C@@H](CC(C)C)C(=O)N(CCC1CCCCC1)CC(=O)N[C@H](Cc1ccccc1)CO2 [Example 18, (3R,9S,13S)-3-benzyl-7-(2-cyclohexylethyl)-9-isobutyl-16-methoxy-10-methyl-5,8,11,15-tetraoxo-N-(2-(pyrazin-2-yl)ethyl)-2,3,4,5,6,7,8,9,10,11,12,13,14,15-tetradecahydrobenzo[p][1]oxa[4,7,10,14]tetraazacycloheptadecine-13-carboxamide] | 0.388 µM | 117% |  |
|  |  | COc1cc2c(cc1OC)C(=O)N[C@H](C(=O)NCCc1ccc3ccoc3c1)CC(=O)N(C)[C@@H](CC(C)C)C(=O)N(C)CC(=O)N[C@H](Cc1ccccc1)CO2 [Example 4, (3R,9S,13S)-N-(2-(benzofuran-6-yl)ethyl)-3-benzyl-9-isobutyl-17,18-dimethoxy-7,10-dimethyl-5,8,11,15-tetraoxo-2,3,4,5,6,7,8,9,10,11,12,13,14,15-tetradecahydrobenzo[p][1]oxa[4,7,10,14]tetraazacycloheptadecine-13-carboxamide] | 0.673 µM | 195% |  |
| 0.506 µM | 146% | CC(C)C[C@H]1C(=O)N2CCN(C3CC3)C[C@H]2C(=O)N[C@H](Cc2ccccc2)COc2cnc3ccccc3c2C(=O)N[C@H](C(=O)NCCc2cccc(OC(F)F)c2)CC(=O)N1C [Example 399, (9S,13S,19aS,22R)-22-benzyl-18-cyclopropyl-N-(3-(difluoromethoxy)phenethyl)-13-isobutyl-12-methyl-7,11,14,20-tetraoxo-7,8,9,10,11,12,13,14,17,18,19,19a,20,21,22,23-hexadecahydro-16H-pyrazino[2′,1′:6,7][1]oxa[4,7,10,14]tetraazacycloheptadecino[17,16-c]quinoline-9-carboxamide] |  |  |  |
|  |  | COc1nccc2c1C(=O)N[C@H](C(=O)NCCc1noc(C3CC3)n1)CC(=O)N(C)[C@@H](CC(C)C)C(=O)N1CCCCC[C@@H]1C(=O)N[C@H](Cc1ccccc1)CO2 [Example 863, (7S,11S,18aR,21R)-21-benzyl-N-(2-(5-cyclopropyl-1,2,4-oxadiazol-3-yl)ethyl)-11-isobutyl-4-methoxy-10-methyl-5,9,12,19-tetraoxo-5,6,7,8,9,10,11,12,14,15,16,17,18,18a,19,20,21,22-octadecahydroazepino[2,1-f]pyrido[3,4-p][1]oxa[4,7,10,14]tetraazacycloheptadecine-7-carboxamide] |  |  | EC50 [5]: 0.587 µM; Emax [6]: 326% |
|  |  | [2H]C([2H])([2H])Oc1cccc(CCNC(=O)[C@@H]2CC(=O)N(C)[C@@H](CC(C)C)C(=O)N(CCC3CCCCC3)CC(=O)N[C@H](Cc3ccccc3)COc3cccc(OC)c3C(=O)N2)c1 [Example 200, (3R,9S,13S)-3-benzyl-7-(2-cyclohexylethyl)-9-isobutyl-16-methoxy-N-(3-(methoxy-d3)phenethyl)-10-methyl-5,8,11,15-tetraoxo-2,3,4,5,6,7,8,9,10,11,12,13,14,15-tetradecahydrobenzo[p][1]oxa[4,7,10,14]tetraazacycloheptadecine-13-carboxamide] | 0.21 µM | 270% |  |
| 0.754 µM | 327% | COc1nccc2c1C(=O)N[C@H](C(=O)NCCc1cc(C)no1)CC(=O)N(C)[C@@H](CC(C)C)C(=O)N1CCCC[C@@H]1C(=O)N[C@H](Cc1ccccc1)CO2 [Example 477, (7S,11S,17aR,20R)-20-benzyl-11-isobutyl-4-methoxy-10-methyl-N-(2-(3-methylisoxazol-5-yl)ethyl)-5,9,12,18-tetraoxo-5,6,7,8,9,10,11,12,15,16,17,17a,18,19,20,21-hexadecahydro-14H-dipyrido[2,1-f:3′,4′-p][1]oxa[4,7,10,14]tetraazacycloheptadecine-7-carboxamide] |  |  |  |
| 0.881 µM | 24% | Cc1cc(CCNC(=O)[C@@H]2CC(=O)N(C)[C@@H](CC(C)C)C(=O)N(C)[C@@H](CO)C(=O)N[C@H](Cc3ccccc3)COc3ccc4ccccc4c3C(=O)N2)on1 (racemic) [Example 720, (3S,7S,10RS,13R)-13-benzyl-10-(hydroxymethyl)-7-isobutyl-6,9-dimethyl-N-(2-(3-methylisoxazol-5-yl)ethyl)-1,5,8,11-tetraoxo-1,2,3,4,5,6,7,8,9,10,11,12,13,14-tetradecahydronaphtho[1,2-p][1]oxa[4,7,10,14]tetraazacycloheptadecine-3-carboxamide] |  |  |  |
|  |  | COc1cc(CCNC(=O)[C@@H]2CC(=O)N(C)[C@@H](CC(C)C)C(=O)N3CCOC[C@@H]3C(=O)N[C@H](Cc3ccccc3)COc3ccc4ccccc4c3C(=O)N2)cc(OC)c1 [Example 325, (4aR,7R,18S,22S)-7-benzyl-N-(3,5-dimethoxyphenethyl)-22-isobutyl-21-methyl-5,16,20,23-tetraoxo-1,2,4,4a,5,6,7,8,16,17,18,19,20,21,22,23-hexadecahydronaphtho[1,2-p][1,4]oxazino[3,4-f][1]oxa[4,7,10,14]tetraazacycloheptadecine-18-carboxamide] | 0.187 µM | 237% |  |

| SMILES | EC50 [3] | Emax [4] | EC50 [1] | Emax [2] | other results |
| --- | --- | --- | --- | --- | --- |
| CC(C)C[C@H]1C(=O)N(C)C2(CC2)C(=O)N[C@H](Cc2ccccc2)COc2ccc3ncccc3c2C(=O)N[C@H](C(=O)NCCc2noc(C3CC3)n2)CC(=O)N1C [Example 544, (3′S,7′S,13′R)-13′-benzyl-N-(2-(5-cyclopropyl-1,2,4-oxadiazol-3-yl)ethyl)-7′-isobutyl-6′,9′-dimethyl-1′,5′,8′,11′-tetraoxo-2′,3′,4′,5′,6′,7′,8′,9′,11′,12′,13′,14′-dodecahydro-1′H-spiro[cyclopropane-1,10′-[1]oxa[4,7,10,14]tetraazacycloheptadecino[16,17-f]quinoline]-3′-carboxamide] | 0.774 µM | 398% |  |  |  |
| COc1cccc(CCNC(=O)[C@@H]2CC(=O)N(C)[C@@H](CC(C)C)C(=O)N3CCN(S(=O)(=O)Cc4cccc5cccnc45)C[C@@H]3C(=O)N[C@H](Cc3ccccc3)COc3ccc4ccccc4c3C(=O)N2)c1 [Example 738, (4aR,7R,18S,22S)-7-benzyl-22-isobutyl-N-(3-methoxyphenethyl)-21-methyl-5,16,20,23-tetraoxo-3-((quinolin-8-ylmethyl)sulfonyl)-2,3,4,4a,5,6,7,8,16,17,18,19,20,21,22,23-hexadecahydro-1H-naphtho[1,2-p]pyrazino[2,1-f][1]oxa[4,7,10,14]tetraazacycloheptadecine-18-carboxamide] | 0.11 µM | 256% |  |  |  |
| CC(C)C[C@H]1C(=O)N(CCC2CCCCC2)CC(=O)N[C@H](Cc2ccccc2)COc2cnc3ccccc3c2C(=O)N[C@H](C(=O)NCCc2ccc3c(c2)OCO3)CC(=O)N1C [Example 610, (3S,7S,13R)-N-(2-(benzo[d][1,3]dioxol-5-yl)ethyl)-13-benzyl-9-(2-cyclohexylethyl)-7-isobutyl-6-methyl-1,5,8,11-tetraoxo-1,2,3,4,5,6,7,8,9,10,11,12,13,14-tetradecahydro-[1]oxa[4,7,10,14]tetraazacycloheptadecino[17,16-c]quinoline-3-carboxamide] | 0.089 µM | 311% |  |  |  |
